Read-outs that look alike come from different tables or passages of the source.

For one assay, the target named is T1, human TLR7 (Homo sapiens, UniProt Q9NYK1).
T1 construct: expressed in transfected cells; host or cells: HEK293 (HEK-Blue-7)
T1 sequence (Q9NYK1 27-1049): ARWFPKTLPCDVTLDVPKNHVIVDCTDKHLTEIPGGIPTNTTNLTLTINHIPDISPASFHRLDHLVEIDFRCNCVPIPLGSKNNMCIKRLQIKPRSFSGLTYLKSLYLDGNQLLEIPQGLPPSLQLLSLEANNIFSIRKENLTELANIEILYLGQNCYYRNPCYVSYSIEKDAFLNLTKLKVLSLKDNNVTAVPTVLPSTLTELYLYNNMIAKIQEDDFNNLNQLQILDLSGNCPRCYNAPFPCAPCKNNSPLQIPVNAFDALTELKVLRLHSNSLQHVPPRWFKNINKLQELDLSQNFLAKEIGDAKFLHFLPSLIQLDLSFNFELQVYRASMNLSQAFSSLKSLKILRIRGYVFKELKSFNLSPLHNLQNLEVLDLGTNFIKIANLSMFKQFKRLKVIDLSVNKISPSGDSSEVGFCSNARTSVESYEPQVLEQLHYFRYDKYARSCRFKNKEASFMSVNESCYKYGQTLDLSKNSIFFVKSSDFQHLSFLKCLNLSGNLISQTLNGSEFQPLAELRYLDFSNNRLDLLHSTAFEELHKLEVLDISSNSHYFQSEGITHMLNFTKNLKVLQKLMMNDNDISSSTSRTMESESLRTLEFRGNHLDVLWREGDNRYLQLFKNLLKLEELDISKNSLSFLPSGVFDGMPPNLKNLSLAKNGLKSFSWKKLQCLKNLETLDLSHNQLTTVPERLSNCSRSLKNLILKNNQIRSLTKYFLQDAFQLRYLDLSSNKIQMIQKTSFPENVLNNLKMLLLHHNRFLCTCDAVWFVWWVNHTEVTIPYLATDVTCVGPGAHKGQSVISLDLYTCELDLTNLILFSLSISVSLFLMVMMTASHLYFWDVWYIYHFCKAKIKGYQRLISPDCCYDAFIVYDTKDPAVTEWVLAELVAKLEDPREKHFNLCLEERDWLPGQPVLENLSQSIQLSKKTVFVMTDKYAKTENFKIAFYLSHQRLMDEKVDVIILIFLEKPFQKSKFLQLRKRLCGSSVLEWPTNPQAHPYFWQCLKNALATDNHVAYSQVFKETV
Kind of assay: Human TLR7 reporter gene assay (NF-κB induction), HEK-Blue-7 cells. The conditions noted are these: for hTLR7-agonistic Activity (EC50): human TLR7-specific reporter gene assay, Inactive = no activity up to 500 μg/mL. In kind it is cell-based.

A further assay addresses T2, human TLR8 (Homo sapiens, UniProt Q9NR97).
T2 construct: expressed in transfected cells; host or cells: HEK293 (HEK-Blue-8)
T2 sequence (Q9NR97 27-1041): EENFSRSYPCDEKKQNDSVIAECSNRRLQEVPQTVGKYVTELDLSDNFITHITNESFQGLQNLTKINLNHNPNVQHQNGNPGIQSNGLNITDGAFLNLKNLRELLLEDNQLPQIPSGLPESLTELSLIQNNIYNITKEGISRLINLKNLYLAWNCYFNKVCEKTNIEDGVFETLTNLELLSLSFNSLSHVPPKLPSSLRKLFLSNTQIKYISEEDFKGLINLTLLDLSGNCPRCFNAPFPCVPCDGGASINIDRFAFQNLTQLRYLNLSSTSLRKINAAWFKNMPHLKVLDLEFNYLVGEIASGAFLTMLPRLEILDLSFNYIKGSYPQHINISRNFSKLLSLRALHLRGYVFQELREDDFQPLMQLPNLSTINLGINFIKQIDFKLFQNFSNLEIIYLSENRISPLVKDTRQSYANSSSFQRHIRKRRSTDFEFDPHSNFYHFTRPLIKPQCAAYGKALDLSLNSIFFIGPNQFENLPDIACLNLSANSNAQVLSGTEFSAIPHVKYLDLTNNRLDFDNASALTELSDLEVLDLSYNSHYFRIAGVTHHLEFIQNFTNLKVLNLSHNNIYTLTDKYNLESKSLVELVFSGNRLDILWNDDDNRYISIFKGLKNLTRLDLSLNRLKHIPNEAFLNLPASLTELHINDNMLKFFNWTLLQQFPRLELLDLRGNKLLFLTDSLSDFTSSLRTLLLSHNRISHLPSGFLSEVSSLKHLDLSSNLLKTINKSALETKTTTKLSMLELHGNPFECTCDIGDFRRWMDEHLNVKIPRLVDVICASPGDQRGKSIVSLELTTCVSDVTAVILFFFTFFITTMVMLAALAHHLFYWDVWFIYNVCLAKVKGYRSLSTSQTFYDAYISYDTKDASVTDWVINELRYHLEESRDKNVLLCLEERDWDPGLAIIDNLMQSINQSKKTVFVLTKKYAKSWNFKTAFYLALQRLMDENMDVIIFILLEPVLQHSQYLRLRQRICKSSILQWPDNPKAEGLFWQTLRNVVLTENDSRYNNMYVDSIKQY
The assay can be described thus: Human TLR8 reporter gene assay (NF-κB induction), HEK-Blue-8 cells. Type of assay: cell-based.

[1] abbreviates: human TLR 8-specific reporter gene assays.
Where [2] appears, read: human TLR 8-specific reporter gene assays, read-out: hTLR8 Agonistic Activity (EC50).
The mark [3] stands for this setting: primary screens, read-out: TLR8-agonistic activity EC50.

Description for human TLR7: (§1) Human TLR-7/-8 Reporter Gene Assays (NF-κB Induction).
(§2) The induction of NF-κB was quantified using HEK-Blue-7 (hTLR7-specific) and HEK-Blue-8 (hTLR8-specific) cells. HEK293 cells stably co-transfected with human TLR7 or human TLR8, MD2, and secreted alkaline phosphatase (sAP), were maintained in HEK-Blue™ Selection medium containing zeocin and normocin. Stable expression of secreted alkaline phosphatase (sAP) under control of NF-κB/AP-1 promoters is inducible by appropriate TLR agonists, and extracellular sAP in the supernatant is proportional to NF-κB induction.
(§3) HEK293 cells stably co-transfected with the appropriate hTLR (or NOD) and secreted alkaline phosphatase (sAP) were maintained in HEK-Blue™ Selection medium. Stable expression of secreted alkaline phosphatase (sAP) under control of NF-κB/AP-1 promoters is inducible by appropriate TLR/NOD agonists, and extracellular sAP in the supernatant is proportional to NF-κB induction.
Description for human TLR8: as §1, §2, §3

As to `CCCCc1nc2c(N)nc3ccccc3c2n1Cc1ccccc1` [1-benzyl-2-butyl-1H-imidazo[4,5-c]quinolin-4-amine, reference compound], the EC50 on human TLR7 (primary screen, read-out: TLR7-specific agonistic activity EC50) is 0.06 µM.
Regarding `CCCCc1nc2c(NC(C)=O)nccc2n1Cc1ccccc1` [Compound 6a, N-(1-Benzyl-2-butyl-1H-imidazo[4,5-c]pyridin-4-yl)acetamide], the “hTLR7-agonistic Activity (EC50)” value at human TLR7 was “Inactive^a”. In addition, at human TLR7 (primary screen), the “TLR7-specific agonistic activity EC50” value is on record as “complete abrogation of activity”.
For `CCCCc1nc2c(NC(=O)CCC)nccc2n1Cc1ccccc1` [Compound 6b, N-(1-Benzyl-2-butyl-1H-imidazo[4,5-c]pyridin-4-yl) butyramide] the same measures were “Inactive” and “complete abrogation of activity”.
For the molecule `CCCCC1(O)C(N)=Nc2ccccc21` (stereo not shown) [Compound A5, 2-amino-3-butyl-3H-indol-3-ol], at human TLR8 (setting [1]), the “hTLR8 Agonistic Activity (EC50)” value is “Inactive”. For the same molecule, the “TLR8-agonistic activity EC50” value at human TLR8 (primary screens) is “inactive”.
`CCCCn1c(N)nc2ccccc21` [Compound A8a, 1-butyl-1H-benz[d]imidazol-2-amine]: the EC50 at human TLR8 (setting [2]) came out at 7.3 µM.
Take `CCCCCn1c(N)nc2ccccc21` [Compound A8b, 1-Pentyl-1H-benzo[d]imidazol-2-amine]: the EC50 at human TLR8 (setting [3]) was 3.23 µM.
For the molecule `CCCCCCn1c(N)nc2ccccc21` [Compound A8c, 1-Hexyl-1H-benzo[d]imidazol-2-amine], the EC50 on human TLR8 (setting [2]) was determined as 3.96 µM.
Consider `Nc1nc2ccccc2n1Cc1ccccc1` [Compound A8d, 1-Benzyl-1H-benzo[d]imidazol-2-amine], for which the “hTLR8 Agonistic Activity (EC50)” value at human TLR8 (setting [1]) is “Inactive”.
The same measure, in the same setting: in the case of `NCc1cccc(Cn2c(N)nc3ccccc32)c1` [Compound A8f, 1-(3-(aminomethyl)benzyl)-1H-benzo[d]imidazol-2-amine] it was “Inactive”.
For `CCCCOC(=O)n1c(N)nc2ccccc21` [Compound A9, butyl 2-amino-1H-benzo[d]imidazole-1-carboxylate], the “hTLR8 Agonistic Activity (EC50)” value at human TLR8 (setting [1]) was “Inactive”. In addition, at human TLR8 (primary screens), the “TLR8-agonistic activity EC50” value is given as “completely abrogated activity”.
With `CCCCCn1c(NC(C)=O)nc2ccccc21` [Compound A10, N-(1-pentyl-1H-benzo[d]imidazol-2-yl)acetamide], the “hTLR8 Agonistic Activity (EC50)” value on human TLR8 (setting [1]) is “Inactive”. The “TLR8-agonistic activity EC50” value on human TLR8 (primary screens) is reported as “completely abrogated activity”.
Consider `CCCCCn1c(N)nc2cc3ccccc3cc21` [Compound A13, 1-Pentyl-1H-naphtho[2,3-d]imidazol-2-amine], for which the “hTLR8 Agonistic Activity (EC50)” value on human TLR8 (setting [1]) is “Inactive”.
Same read-out and setting: the entry for `CCCCCn1c(N)nc2ccc3ccccc3c21` [Compound A18, 1-pentyl-1H-naphtho[1,2-d]imidazol-2-amine] is “Inactive”.
Regarding `CCCCCn1c(N)nc2c3ccccc3ccc21` [Compound A23, 3-Pentyl-3H-naphtho[1,2-d]imidazol-2-amine], the EC50 at human TLR8 (setting [3]) was 3.16 µM.
Take `CCCCCn1c(N)nc2ncccc21` [Compound A27a, 1-Pentyl-1H-imidazo[4,5-b]pyridin-2-amine]: the “hTLR8 Agonistic Activity (EC50)” value on human TLR8 (setting [1]) was “Inactive”.
On the same count and under the same terms, in the case of `CCCCCn1c(N)nc2cnccc21` [Compound A27b, 1-Pentyl-1H-imidazo[4,5-c]pyridin-2-amine] it was “Inactive”; in that of `CCCCCn1c(N)nc2ccncc21` [Compound A27c, 3-Pentyl-3H-imidazo[4,5-c]pyridin-2-amine], “Inactive”; in that of `CCCCCn1c(N)nc2cccnc21` [Compound A27d, 3-Pentyl-3H-imidazo[4,5-b]pyridin-2-amine], “Inactive”.
For `CCCCCn1c(N)nc2cc(C)ccc21` [Compound A31b, 5-Methyl-1-pentyl-1H-benzo[d]imidazol-2-amine], the EC50 at human TLR8 (setting [2]) was 4.57 µM.
Take `CCCCCn1c(N)nc2ccc(C)cc21` [Compound A31c, 6-Methyl-1-pentyl-1H-benzo[d]imidazol-2-amine]: the EC50 at human TLR8 (setting [2]) turned out to be 7.21 µM.
Regarding `CCCCCn1c(N)nc2cccc(C)c21` [Compound A31d, 7-Methyl-1-pentyl-1H-benzo[d]imidazol-2-amine], the EC50 on human TLR8 (setting [2]) stood at 6.61 µM.
With `CCCCCn1c(N)nc2c(OC)cccc21` [Compound A31e, 4-Methoxy-1-pentyl-1H-benzo[d]imidazol-2-amine], at human TLR8 (setting [3]), the EC50 came out at 3.74 µM.
For `CCCCCn1c(N)nc2c(F)cccc21` [Compound A31f, 4-Fluoro-1-pentyl-1H-benzo[d]imidazol-2-amine], the “hTLR8 Agonistic Activity (EC50)” value at human TLR8 (setting [1]) is recorded as “Inactive”.
Same read-out and setting: in the case of `CCCCCn1c(N)nc2c(Cl)cccc21` [Compound A31g, 4-Chloro-1-pentyl-1H-benzo[d]imidazol-2-amine] it was “Inactive”.
In the case of `CCCCCn1c(N)nc2c(C(F)(F)F)cccc21` [Compound A31h, 1-Pentyl-4-(trifluoromethyl)-1H-benzo[d]imidazol-2-amine], the “hTLR8 Agonistic Activity (EC50)” value on human TLR8 (setting [1]) is listed as “Inactive”.
Still for that read-out and setting: in the case of `CCCCCn1c(N)nc2c(Br)cccc21` [Compound A31i, 4-Bromo-1-pentyl-1H-benzo[d]imidazol-2-amine] it was “Inactive”.
Consider `CCCCCn1c(N)nc2c(CC)cccc21` [Compound A31j, 4-Ethyl-1-pentyl-1H-benzo[d]imidazol-2-amine], for which, at human TLR8 (setting [2]), the EC50 is 1.65 µM.
`CCCCCn1c(N)nc2c(N(C)C)cccc21` [Compound A31k, N^4,N^4-demethyl-1-pentyl-1H-benzo[d]imidazole-2,4-diamine]: the EC50 at human TLR8 (setting [2]) was determined as 7.12 µM.
Take `CCCCCn1c(N)nc2c(-c3ccccc3)cccc21` [Compound A31l, 1-pentyl-4-phenyl-1H-benzo[d]imidazol-2-amine]: the “hTLR8 Agonistic Activity (EC50)” value at human TLR8 (setting [1]) is “Inactive”. Further, the “TLR8-agonistic activity EC50” value at human TLR8 (primary screens) is given as “abrogated activity”.
For `CCCCCn1c(N)nc2c(Cc3ccccc3)cccc21` [Compound A31m, 4-benzyl-1-pentyl-1H-benzo[d]imidazol-2-amine] the same measures were “Inactive” and “abrogated activity”.
Consider `CCCCCn1c(N)nc2c(OCc3ccccc3)cccc21` [Compound A35, 4-Benzyloxy-1-pentyl-1H-benzoimidazol-2-ylamine], for which the “hTLR8 Agonistic Activity (EC50)” value at human TLR8 (setting [1]) was “Inactive”. Further, the “TLR8-agonistic activity EC50” value at human TLR8 (primary screens) was “abrogated activity”.
For `CCCCCn1c(N)nc2c(O)cccc21` [Compound A36, 2-Amino-1-pentyl-1H-benzoimidazol-4-ol], on human TLR8 (setting [2]), the EC50 was 5.01 µM.
In the case of `CCCCCn1c(N)nc2c([N+](=O)[O-])cccc21` [Compound A39, 4-Nitro-1-pentyl-1H-benzoimidazol-2-ylamine], on human TLR8 (setting [1]), the “hTLR8 Agonistic Activity (EC50)” value is recorded as “Inactive”. Further, on human TLR8 (primary screens), the “TLR8-agonistic activity EC50” value is “inactive”.
Regarding `CCCCCn1c(N)nc2c(N)cccc21` [Compound A40, 1-Pentyl-1H-benzoimidazole-2,4-diamine], the EC50 at human TLR8 (setting [2]) is 6.6 µM.

The values above are taken from patent US10471139B2, “Toll-like receptor agonists” (The University of Kansas, priority 2013, dated 2019).
